Laboratory results: US20050186137A1, “Novelty-induced hypophagia-based assays for identifying agents to treat anxiety and depression” (priority 2003, published 2005)
Like-named read-outs stand apart in the source and are kept apart here.

Legend:
animals = animals without drug withdrawal or chronic stress; low dose fluoxetine; cited from earlier work
[1] = system: BALB/cJ, DBA/2J, C57BL/6J, and 129SvEv mice; experiment: Open field test, strain comparison; assay type: in vivo, mouse; conditions: for center measures: chronic fluoxetine 5 or 10 mg/kg/day
Procedure: For the strain comparison study, 36 male mice of four strains (BALB/cJ, DBA/2J, C57BL/6J, 129SvEv) were subjects for a total of 144 mice. Mice were tested in the OF beginning on day 30 or 33 of chronic fluoxetine treatment. Mice were tested for 15 min on three consecutive days to maximize activity levels. Mice were then tested in the modified FST on day 36 or 37.
Open field test: Motor activity was quantified in four Plexiglas OF boxes 43 x 43 cm (MED Associates, Georgia, Vt.). Two sets of 16 pulse-modulated infrared photobeams were placed on opposite walls 2.5-cm apart to record x-y ambulatory movements. Activity chambers were computer interfaced for data sampling at 100-ms resolution. The computer defined grid lines that divided each OF into center and surround regions, with each of four lines being 11 cm from each wall. Dependent measures were the number of entries into the center, the distance traveled in the center, total time spent in the center, and distance traveled in the center divided by total distance traveled. Overall motor activity was quantified as the total distance traveled (cm).
Open field test: For Experiment 1, two-factor ANOVAs with fluoxetine as a between-subject factor and day as a within-subject factor were applied to five measures for each strain: time spent in the center, distance traveled in the center, center distance/total distance traveled, entries into the center, and total distance traveled. Main effects of fluoxetine or significant interactions of fluoxetine and day were resolved using post-hoc ANOVAs with adjusted p-values and/or Newman-Keuls post-hoc tests. Subchronic and chronic experiments in Balb/cJ mice were analyzed using one-way ANOVAs with fluoxetine as a between-subjects factor and Newman-Keuls post-hoc tests for the same variables. Because data deviated substantially from a normal distribution due to low activity levels of Balb/cJ mice, analyses were applied to log transformed data.
Remaining significant effects of fluoxetine indicate independence between measures of locomotor activity and center measures.

BALB/cJ mice [2] = conditions: acute 10 mg/kg fluoxetine; cited from earlier work
BALB/cJ mice [3] = experiment: Modified forced swim test, chronic vs. subchronic fluoxetine; assay type: in vivo, mouse
Procedure: (§1) For chronic fluoxetine studies in BALB/cJ mice, 60 male BALB/cJ mice were tested in the OF for 30 min on days 19 or 20 of chronic fluoxetine treatment. Mice were then pretested and tested in the modified FST on days 21 and 22, respectively. Animals were then allowed to adapt to being singly housed, and were trained for NIH on days 25-27. Home cage and novel cage testing occurred on days 28 and 29, respectively. Mice were then assessed for PPI on days 34 or 35.
(§2) Studies of subchronic fluoxetine were conducted using separate groups of 60 male BALB/cJ mice to prevent fluoxetine treatment from exceeding one week. One group was tested in the OF after one day of subchronic fluoxetine treatment. Mice were then pretested after 6 and tested after 7 days of subchronic fluoxetine treatment in the modified FST. A second group of BALB/cJ mice began fluoxetine treatment after being singly housed. They were then tested in the NIH test after 4 (home) and 5 (novel) days of subchronic fluoxetine treatment. A third group was tested for PPI after one or two days of subchronic fluoxetine treatment.
Modified forced swim test: Mice were placed into 19 cm diameter plastic buckets which were 23 cm deep filled with 23°-25° C. water, and videotaped for six minutes. Only the last four minutes were scored for four measures: swimming, immobility, climbing, or other. The predominant behavior was recorded every 5 sec. For chronic and subchronic fluoxetine studies in BALB/cJ mice, mice were pre-exposed to the FST for 6 min 24 hours before test day to increase sensitivity for detecting antidepressant behavioral effects (Borsini et al., 1989).
Modified forced swim test: Two-factor ANOVAs with fluoxetine as a between-subjects factor and block (1 min intervals) as a within-subject factor were applied to three different measures: swimming, immobility, and climbing. Significant main effects of fluoxetine and interactions were resolved using post-hoc ANOVAs with adjusted p-values, and/or Newman-Keuls post-hoc tests.

BALB/cJ mice [4] = experiment: Novelty induced hypophagia test; assay type: in vivo, mouse
Procedure: as §1, §2
Novelty induced hypophagia test: Mice were singly housed several days before training began. For three consecutive days of training, mice were presented with diluted (1:3; milk:water) sweetened condensed milk (Carnation) in pipettes in the home cage for 30 min. Testing occurred on days 4 and 5 when mice were presented with the milk, and latency to drink and the volume consumed were recorded every five minutes for 30 min. On day 4, testing occurred in the home cage under dim lighting (approx. 50 lux). Mice were briefly removed from the cage to position pipettes, and testing began when mice were returned to their cages. On day 5, mice were placed into new cages of the same dimensions without shavings under bright lighting (approx. 1200 lux). White paper was placed under cages to enhance aversiveness on day 5.
Novelty induced hypophagia test: For latency scores, a maximum cut-off of 600 sec was used. Two-factor ANOVAs with home/novel cage condition as a within-subjects factor and fluoxetine as a between-subjects factor were applied to latency values. Main effects of fluoxetine or significant interactions of fluoxetine and home/novel cage condition were resolved using post-hoc ANOVAs with adjusted p-values and/or Newman-Keuls post-hoc tests. For consumption data, a three-factor ANOVA with block (5 min intervals) and home/novel cage condition as within-subjects factors and fluoxetine as a between-subjects factor was used to assess whether the novel cage was sufficiently anxiogenic to reduce consumption. Two-factor ANOVAs with block as a within-subjects factor and fluoxetine as a between-subjects factor were applied separately to consumption values for the home and the novel cage. Main effects of fluoxetine or significant interactions were resolved using post-hoc ANOVAs with adjusted p-values and/or Newman-Keuls post-hoc tests.

[5] = administration of fluoxetine in the drinking water; cited from earlier work
[6] = 129SvEv mice, chronic 5 and 10 mg/kg/day, day 1, relative to controls
[7] = subchronic (4-5 days) fluoxetine

## CNCCC(Oc1ccc(C(F)(F)F)cc1)c1ccccc1 (centres unmarked) [fluoxetine]
animals
  intracranial self-stimulation reward thresholds: no effect
[1]; 129SvEv mice, chronic 10 mg/kg/day, relative to both other doses on day 1 and to 5 mg/kg/day on day 3
  locomotor activity: reduced locomotor activity
[1]; 129SvEv mice, chronic 5 and 10 mg/kg/day
  time in the center: reduced time in the center relative to control
[1]; [6]
  center entries: reduced
  distance traveled in the center: reduced the distance traveled in the center
[1]; BALB/cJ mice
  center measures: produced no changes
[1]; BALB/cJ mice, chronic fluoxetine 5 or 10 mg/kg/day in drinking water, three consecutive days
  locomotor activity: no changes in locomotor activity
[1]; C57BL/6J mice, chronic 10 mg/kg/day, relative to controls
  locomotor activity: reduced locomotor activity overall
[1]; C57BL/6J mice, chronic 5 and 10 mg/kg/day, relative to control
  entries into the center: overall reduction in the number of entries into the center
[1]; DBA/2J mice
  center measures: produced no changes
[1]; DBA/2J mice, chronic fluoxetine (10 mg/kg/day vs controls on day 3)
  locomotor activity: trend towards increased locomotor activity
[1]; any of the four strains, chronic fluoxetine
  center/total distance traveled: no effects
BALB/cJ mice [2]
  immobility: reduces immobility acutely
BALB/cJ mice [3]; acute administration of 10 mg/kg/day in the drinking water, expected
  effect in the modified FST: no effect
BALB/cJ mice [3]; chronic 25 mg/kg/day
  climbing: increased climbing relative to all other doses
BALB/cJ mice [3]; chronic 10 and 18 mg/kg/day, compared to 0 and 25 mg/kg/day
  swimming: increases in swimming
BALB/cJ mice [3]; chronic fluoxetine
  immobility: No significant effects
BALB/cJ mice [3]; subchronic (7 days) 18 mg/kg/day relative to the 0 dose
  climbing: increase in climbing
BALB/cJ mice [3]; subchronic (7 days) fluoxetine
  immobility: no effect
  swimming: no effect
BALB/cJ mice [4]; chronic 25 mg/kg/day
  milk consumption in the home cage, first block (0-5 min): increased milk consumption compared to control
BALB/cJ mice [4]; chronic 18 and 25 mg/kg/day
  milk consumption in the novel cage, first block (0-5 min): increased milk consumption compared to the 0 and 10 mg/kg/day doses
BALB/cJ mice [4]; chronic 18 and 25 mg/kg/day vs control
  latency difference scores (novel minus home): control animals exhibited significantly larger difference scores
BALB/cJ mice [4]; chronic fluoxetine
  latency to drink milk in the home cage: reduced the latency to drink milk in the novel, but not the home cage
BALB/cJ mice [4]; chronic fluoxetine, all three doses (10, 18, 25 mg/kg/day)
  latency to drink in the novel cage: reduced the latency to drink relative to control in a dose-related fashion
BALB/cJ mice [4]; subchronic (4-5 days) 25 mg/kg/day
  consumption in the home cage, post-hoc tests: only a trend for the 25 mg/kg/day dose to increase consumption relative to control
BALB/cJ mice [4]; [7]
  latency to drink: no effect on any measure of latency
  milk consumption: no effect
[5]
  time by which steady state blood levels have been achieved: ≤ 5 days
